Source: US6939869B2, “Pyrrolo[2,1-c][1,4] benzodiazepine-indole derivatives, their preparation process, and uses of the same” (Kaohsiung Medical University, priority 2002, dated 2005)

Columns and labels:
[1] = system: EKVX (non-small cell lung cancer); assay: NCI in vitro anticancer assay, growth inhibition, EKVX; format: cell-based; conditions: Homo sapiens, read-out: GI50 (concentration causing 50% cell growth inhibition)
Description: (§1) The tested human tumor cell lines are as follows: (1) CCRF-CEM, K-562, MOLT-4 and SR of leukemia; (2) A549/ATCC, EKVX, HOP-62, HOP-92, NCI-H226, NCI-H23, NCI-H322M, NCI-H460a and NCI-H522 of non-small cell lung cancer; (3) COLO 205, HCC-2998, HCT-116, HCT-15, HT29, KM12 and SW-620 of colon cancer; (4) SF-268, SF-295, SF-539, SNB-19, SNB-75 and U251 of CNS cancer; (5) LOX IMVI, MALME-3M, M14, SK-MEL-2, SK-MEL-28, SK-MEL-5, UACC-257 and UACC-62 of melanoma; (6) IGROV1, OVCAR-3, OVCAR-4, OVCAR-5, OVCAR-8 and SK-OV-3 of ovarian cancer; (7) 786-0, A498, ACHN, CAKI-1, RXF 393, SN12C, TK-10 and UO-31 of renal cancer; (8) […] and DU-145 of prostate cancer; and (9) MCF7, MCF7/ADR-RES, MDA-MB-231/ATCC, HS 578T, MDA-MB-435, MDA-N, BT-549 and T-47D of breast cancer.
(§2) For each compound, the dose-response curves for each tested tumor cell line were measured with five different dose concentrations, and the concentration causing 50% cell growth inhibition (GI50) compared with the control was calculated.

[2] = system: NCI-H522 (non-small cell lung cancer); assay: NCI in vitro anticancer assay, growth inhibition, NCI-H522; format: cell-based; conditions: Homo sapiens, read-out: GI50 (concentration causing 50% cell growth inhibition)
Description: as §1, §2

COLO 205 (colon cancer) = assay: NCI in vitro anticancer assay, growth inhibition, COLO 205; format: cell-based; conditions: Homo sapiens, read-out: GI50 (concentration causing 50% cell growth inhibition)
Description: as §1, §2

HT29 (colon cancer) = assay: NCI in vitro anticancer assay, growth inhibition, HT29; format: cell-based; conditions: Homo sapiens, HT-29, read-out: GI50 (concentration causing 50% cell growth inhibition)
Description: as §1, §2

SF-268 (CNS cancer) = assay: NCI in vitro anticancer assay, growth inhibition, SF-268; format: cell-based; conditions: Homo sapiens, read-out: GI50 (concentration causing 50% cell growth inhibition)
Description: as §1, §2

U251 (CNS cancer) = assay: NCI in vitro anticancer assay, growth inhibition, U251; format: cell-based; conditions: Homo sapiens, U-251, read-out: GI50 (concentration causing 50% cell growth inhibition)
Description: as §1, §2

RXF 393 (renal cancer) = assay: NCI in vitro anticancer assay, growth inhibition, RXF 393; format: cell-based; conditions: Homo sapiens, read-out: GI50 (concentration causing 50% cell growth inhibition)
Description: as §1, §2

SN12C (renal cancer) = assay: NCI in vitro anticancer assay, growth inhibition, SN12C; format: cell-based; conditions: Homo sapiens, read-out: GI50 (concentration causing 50% cell growth inhibition)
Description: as §1, §2

[3] = In vivo hollow fiber assay (NCI); conditions: intraperitoneal (IP) and subcutaneous (SC) samples, total score of 20 or more considered active
Protocol: The compounds obtained from the above Synthesis Ex. 1 and Synthesis Ex. 2 were further examined in an in vivo hollow fiber assay conducted by the National Cancer Institute (NCI) in the United States, in which an intraperitoneal (IP) sample and a subcutaneous (SC) sample were tested. In this assay, if a tested compound is observed to have a total score of IP score and SC score […]20, it will be considered to be active and to have the potential as an anti-tumor/anti-cancer drug candidate. According to the confidential report of the Developmental Therapeutics Program issued by NCI on Apr.

[4] = system: 60 human tumor cell lines; assay: NCI in vitro anticancer assay, mean over 60 cell lines; format: cell-based; conditions: mean values over 60 cell lines tested
Description: as §1, §2
Table 1 summarizes the respective GI50 values and mean GI50 values for the tested compounds in relation to all the 60 tumor cell lines.

| SMILES | GI50 [1] [µM] | GI50 [2] [µM] | GI50 (COLO 205 (colon cancer)) [µM] | GI50 (HT29 (colon cancer)) [µM] | GI50 (SF-268 (CNS cancer)) [µM] | GI50 (U251 (CNS cancer)) [µM] | GI50 (RXF 393 (renal cancer)) [µM] | GI50 (SN12C (renal cancer)) [µM] | total score of IP score and SC score [3] | GI50 ([4]; Homo sapiens, 60 cell) [µM] | GI50 [4] [µM] |
| --- | --- | --- | --- | --- | --- | --- | --- | --- | --- | --- | --- |
| COc1cc2c(cc1OCCCNC(=O)c1cc3ccccc3[nH]1)N=C[C@@H]1CCCN1C2=O [Synthesis Ex. 2] | 0.604 | 0.0141 | 0.118 | 0.274 | 0.027 | 0.0394 | 0.025 | 0.41 | 30 | – | – |
| COc1cc2c(cc1OC(=O)c1cc3ccccc3[nH]1)N=C[C@@H]1CCCN1C2=O [Synthesis Ex. 1] | 0.674 | 0.198 | 0.196 | 0.185 | 0.669 | 0.302 | 0.155 | 0.21 | 22 | ≤ 0.38 | 0.38 |
